Patent US20050209104A1, “Dinoflagellate karlotoxins, methods of isolation and uses thereof” (priority 2002, published 2005)
≈ marks a conversion by molar mass, not a printed value. Like-named read-outs stand apart in the source and are kept apart here. Marks after values point to notes of the source that are not given here.

Experiments:
[1] = test system: rainbow trout erythrocytes; conditions: for presence of hemolytic activity of copper solution: mixed with equal volume of 5% erythrocyte suspension
Experimental: The filtrate from water samples collected on Feb. […] Environmental water samples were allowed to thaw to room temperature and passed through a Sep-Pak Plus tC18 disposable cartridge (Waters Corp., Milford Mass.), attached to a vacuum manifold. The column was pre-equilibrated with methanol (20 ml) followed by H2O (20 ml). The cartridges were eluted with the following concentrations of MeOH/H2O: 100% H2O, 40%, 60%, 80%, and 100% MeOH (12 ml ea^−1). An aliquot of each elution was diluted, using Tris buffer +CaCl2, to give final dilutions ranging from 6 to 60% of original concentrations. […] The occurrence of hemolytic activity was determined by the absorbance of released hemoglobin, measured at 540 nm. Saponin (10 μg) served as a positive hemolysin control. Treatments were run in quadruplicate.
A hemolytic assay based on the lysis of fish erythrocytes was utilized to screen for bioactive materials. Cultures and culture fractions that were positive in the hemolytic assay were tested further using assays for ichthyotoxicity and cytotoxicity.
Blood was extracted from the caudal vein of rainbow trout (Oncorhynchus mykis) provided by the Center of Marine Biotechnology's Aquaculture Research Center. Needles were heparin (Sigma Chemical Co., St. Louis Mo.) treated and 10 units ml^−1 of additional heparin was added to whole blood samples to prevent clotting. […] Buffer pH was adjusted to 7.4 at 10° C. with 1N HCl, then filter sterilized (0.22 μm). […] Suspensions were stored at 4° C. for no longer than 10 days.
Hemolytic assays were performed by diluting test material in Tris buffer +CaCl2 (100 μl total) and adding this to a 5% erythrocyte suspension (100 μl). […] Assays were incubated on an orbital shaker (80-100 rpm) at 20° C. for 1 hour. Plates were then centrifuged at 2500 g for 5 min. and the supernatant (100 μl) was transferred to another flat bottom 96 well polystyrene plate, where the absorbance of released hemoglobin was read at 540 nm. Saponin (10 μg) (from Quillaja bark; Sigma Chemical Co., St. Louis Mo.) was used as a positive hemolysin control All treatments were run in quadruplicate.
LC50values and ranges were determined by Probit analysis (SPSS Base 10.0, SPSS Inc., Chicago Ill.).
Blood was extracted from the caudal vein of rainbow trout (Oncorhynchus mykis). […] Buffer pH was adjusted to 7.4 at 10° C. with 1N HCl, then filter sterilized (0.22 um). […] Blood suspensions were stored at 4° C. for no longer than 10 days.
Hemolysis assays were performed by diluting test material in Tris buFFer +CaCl2 (100 ul) and adding this to 100 ul of a 5% erythrocyte suspension for a total assay volume of 200 ul. […] Plates were incubated on an orbital shaker (80-100 rpm) at 20° C. for 1 hour. Plates were then centrifuged at 2000 g for 5 min. and the supernatant (100 ul) was transferred to a new flat bottom 96 well polystyrene plate, where the absorbance of released hemoglobin was read at 540 nm. Saponin (from Quillaja bark; Sigma Chemical Co., St. Louis Mo.) was used as a positive hemolysin control. Percent hemolysis (0-100%) was calculated from comparison to un-treated controls and samples treated with 10 ug saponin. All treatments were run in quadruplicate.
Hemolytic LC50 values were calculated from a dilution series of KmTx 2 and amphotericin B. LC50 values and ranges were determined by Probit analysis using a SPSS Base 10.0 statistical software package (SPSS Inc., Chicago, Ill.).

[2] = test system: Karlodinium micrum (CCMP 1974); assay: Dinoflagellate lysis due to copper sulfate and potassium permanganate (K. micrum); type: cell-based; conditions: exposures ≧2 mg L^−1 and only after 2 hours
[3] = test system: striped bass fingerlings; conditions: comparable salinities, higher alkalinities (Reardon and Harrell, 1990); cited from earlier work
[4] = test system: sheepshead minnow (Cyprinodon variegatus) larvae; assay: Static acute larval fish ichthyotoxicity bioassay (sheepshead minnow); type: in vivo; conditions: algicide alone (control larvae without K. micrum)
Experimental: Ichthyotoxicity was evaluated using a static, acute (24-48 hour), small volume (2 ml), larval fish bioassay. Exposures were performed at 20° C. in 24-well non-tissue culture treated polystyrene plates (Becton Dickinson Labware, Franklin Lakes N.J.). Two species were utilized for ichthyotoxicity testing, zebrafish (Danio rerio) and sheepshead minnows (Cyprinodon variegatus), depending on their availability and salinity tolerance, with sheepshead minnows being tolerant to a wider range of salinities, but zebrafish being more readily obtainable in large numbers. Therefore, zebrafish, 5-<48 hrs old post-hatch, were used for toxic fraction testing, while sheepshead minnows, 3-<24 hours old post-hatch, were used to test whole dinoflagellate cultures. Larvae were not fed prior to or during testing. Previous experiments had shown that, at the biomass/water ratios used for each species, oxygen saturation remained >60% during the 48 hour exposure, as recommended in the Standard Guide for Conducting Acute Toxicity Tests with Fishes, Macroinvertebrates, and Amphibians (ASTM, 1992). All treatments were run in triplicate.
This experiment was run in triplicate. For these experiments, 12 psu ASW (Instant Ocean Brand) with added f/2-Si nutrient mixture (Guillard, 1975) and 1.5% soil extract and 0.3% chicken manure extract (alkalinity 75 mg L^−1 CaCO3) was used as the diluent. […]

[5] = for % DECREASE of measured free copper: n = 2
Experimental: The first experiment involved the addition of EDTA ([…]) [as EDTA +4 Na·2 H2O ] to 0.9% NaCl solutions containing CuSO4·5 H2O (0.1, 0.5, 2.5, or 10 mg L^−1 Cu). Free Cu was measured using the porphyrin method (range 0-210 μg L^−1 ) (HACH, Loveland Colo.). […] Each solution, with and without EDTA, was assayed for hemolytic activity.

[6] = test system: Candida albicans (ATCC 14053); assay: Anti-fungal broth microdilution assay (yeast); type: cell-based
Experimental: (§1) The following fungal strains were purchased from the American Type Culture Collection (Manassas, Va.), Aspergillus niger (ATCC 1004) as a representative filamentous fungi, and Candida albicans (ATCC 14053) as a representative yeast. Assays were performed according to the following National Committee for Clinical Laboratory Standards documents; M27-A2 Reference Method for Broth Dilution Antifungal Susceptibility Testing of Yeasts; Approved Standard—Second Edition([NCCLS, 2002), and M38-A Reference Method for Broth Dilution Antifungal Susceptibility Testing of Filamentous Fungi; Approved Standard (NCCLS, 2002). Procedures for the broth microdilution modification were followed for both species with the following exceptions; A. niger stocks were maintained on Potato Dextrose Agar at 25° C., while C. albicans was maintained on Yeast Malt Agar at 28° C., both according to ATCC recommendations. Amphotericin B was used as a positive control. Microdilution assays were performed in HyQ-RPMI-1640 media (HyClone, Logan, Utah.), with 2.05 mM L-glutamine, without sodium bicarbonate, pH 7.2 using dilutions of 1 mg/ml DMSO stocks of KmTx 2 and amphotericin B.
(§2) The following concentrations were tested for both KmTx2 and amphotericin B: 0.0625, 0.125, 0.25, 0.5, 1, 2, 4, 8, and 16 μg/ml. A maximum of 1.6% DMSO was added to any given well. Plates were incubated at 25 and 28° C., respectively, for A. niger and C. albicans. […] Amphotericin B and all culture media were purchased from Sigma-Aldrich (St. Louis, Mo.).

[7] = test system: Aspergillus niger (ATCC 1004); assay: Anti-fungal broth microdilution assay (filamentous fungi); type: cell-based
Experimental: as §1, §2

[8] = test system: rainbow trout erythrocytes; assay: Membrane lipid inhibition assay of KmTx 2 hemolytic activity; type: cell-based; conditions: for inhibition of the hemolytic activity of KmTx 2 by co-incubation: 0.001-10 μM sterol or lipid, KmTx 2 0.1, 0.5, 1 μg/ml
Experimental: To assess the inhibitory effects of exogenous membrane lipids on KmTx 2 hemolytic activity, the following sterols and lipids were tested: cholesterol, ergosterol, gymnodinosterol, and both natural and synthetic phosphatidylcholine. Cholesterol (5-cholesten-3β-ol) and L-α-phosphatidylcholine (brain, porcine) were purchased from Avanti Polar Lipids Inc. (Alabaster, Ala.); ergosterol (5,7,22-cholestatrien-24β-methyl-3β-ol) was purchased from Steraloids, Inc. (Newport, R.I.). Synthetic phosphatidylcholine (L-α-lecithin (β-γ-dipalmitoyl) was purchased from Calbiochem (San Diego, Calif.), Gymnodinosterol was isolated from filtered K. micrum (CCMP 2282) cells (isolation described in supplemental materials). KmTx 2: 0, 0.1, 0.5, and 1 μg/ml was added to solutions of Tris buffer +CaCl2 with either: 0, 0.001, 0.01, 0.1, 1 or 10 μM selected sterol or membrane lipid. Stock solutions of toxin and lipid were made in methanol and no more than 1% of each (2% total) was added to any given well. After brief mixing, these solutions were added 1: 1 with a diluted suspension of rainbow trout erythrocytes and hemolytic activity was assessed as described in supplemental materials.

[9] = test system: rat embryonic fibroblast (REF 52) cells; assay: Ion permeation measurement, Ca^2+ flux with fura-2 (fibroblasts); type: cell-based; conditions: 0.2 μM
Experimental: The following cell types were tested for toxicity due to KmTx 2; rat embryonic fibroblast, rat intestional epithelial, and isolated rabbit primary sensory neurons. Cells were cultured on No. 1 glass coverslips and loaded with fluorescent indicator (fura-2) and were examined on an inverted epifluorescence microscope (model Diaphot; 40×CF Fluor objective, N.A. 1.30; Nikon Corp.) coupled to a spectrofluorometer (model CM1T10I, SPEX Industries) operating in the microfluorometry mode. Cells were bathed in 4 ml of Dulbecco's modified Eagle's medium (DMEM) buffered with HEPES (pH 7.4). KmTx 2 (stock solution in DMSO) was directly bath-applied with gentle convective mixing. Fura-2 was alternately excited at 340 and 380 nm. Fluorescence emission was passed through a 510-nm bandpass filter before photometric quantitation. DATAMAX software (SPEX Industries) was used for data acquisition and instrument control. Origin software (OriginLab Corp.) was used for data reduction and analysis

[10] = any concentration (0.0625-16 μg/ml) after 24 hours

Molecule: O.O.O.O.O.O=S(=O)([O-])[O-].[Cu+2] [CuSO4, CuSO4·5 H2O]
- presence of hemolytic activity of copper solution ([1]; copper 5 mg L^−1 without EDTA): 4.957*
- presence of hemolytic activity of copper solution ([1]; copper 20 mg L^−1 without EDTA): 21.110*
- Cell lysis [2]: occurred in K. micrum
- 96h LC50 [3]: ca. 8 mg L^−1
- mortality or epithelial damage of sheepshead minnow larvae [4]: No mortality or epithelial damage

Molecule: O.O.O=C([O-])CN(CCN(CC(=O)[O-])CC(=O)[O-])CC(=O)[O-].[Na+].[Na+].[Na+].[Na+] [EDTA, EDTA +4 Na·2 H2O]
- effect of EDTA on hemolytic activity due to Cu alone [1]: completely remove hemolytic activity
- free Cu chelated ([5]; EDTA 2 mM, all concentrations tested): > 90%
- % DECREASE of measured free copper ([5]; copper 0.2 mg L^−1, EDTA 2 mM): 96.3%
- % DECREASE of measured free copper ([5]; copper 1 mg L^−1, EDTA 2 mM): 95.9%
- % DECREASE of measured free copper ([5]; copper 5 mg L^−1, EDTA 2 mM): 90.4%
- % DECREASE of measured free copper ([5]; copper 20 mg L^−1, EDTA 2 mM): 92.6%

Molecule: C[C@@H]1[C@H](O)[C@@H](C)/C=C/C=C/C=C/C=C/C=C/C=C/C=C/[C@H](O[C@@H]2O[C@H](C)[C@@H](O)[C@H](N)[C@@H]2O)C[C@@H]2O[C@](O)(C[C@@H](O)C[C@@H](O)[C@H](O)CC[C@@H](O)C[C@@H](O)CC(=O)O[C@H]1C)C[C@H](O)[C@H]2C(=O)O [amphotericin B, reference compound]
- hemolytic LC50 ([1]; probit analysis of dilution series): 3.759 µg/mL
- growth [6, 10]: no growth was observed
- Minimal inhibitory concentration (MIC) ([6]; lowest dose with no growth after 96 hours, 28° C.): 0.125 µg/mL (≈ 0.135 µM)
- growth [7, 10]: no growth was observed
- Minimal inhibitory concentration (MIC) ([7]; lowest dose with no growth after 96 hours, 25° C.): 0.5 µg/mL (≈ 0.541 µM)

Molecule: CC(C)CCC[C@@H](C)[C@H]1CC[C@H]2[C@@H]3CC=C4C[C@@H](O)CC[C@]4(C)[C@H]3CC[C@]12C [cholesterol, 5-cholesten-3β-ol]
- inhibition of the hemolytic activity of KmTx 2 by co-incubation [8]: inhibited
- concentration at which complete inhibition was reached ([8]; co-incubation with KmTx 2): ca. 10 μM

Molecule: CC(C)[C@@H](C)/C=C/[C@@H](C)[C@H]1CC[C@H]2C3=CC=C4C[C@@H](O)CC[C@]4(C)[C@H]3CC[C@]12C [ergosterol, 5,7,22-cholestatrien-24β-methyl-3β-ol]
- inhibition of the hemolytic activity of KmTx 2 by co-incubation [8]: inhibited
- concentration at which inhibition plateaued ([8]; co-incubation with KmTx 2): ca. 1 μM

Molecule: CC(C)[C@H](C)C=C[C@@H](C)[C@H]1CCC2=C3CC[C@H]4[C@H](C)[C@@H](O)CC[C@]4(C)[C@H]3CC[C@@]21C [gymnodinosterol, (24S)-4α-methyl-5α-ergosta-8(14),22-dien-3β-ol]
- inhibition of the hemolytic activity of KmTx 2 by co-incubation [8]: not inhibited

Molecule: CCCCCCCCCCCCCCCC(=O)OC[C@H](COP(=O)([O-])OCC[N+](C)(C)C)OC(=O)CCCCCCCCCCCCCCC [synthetic dipalmitoyl (16:0), L-α-lecithin (β-γ-dipalmitoyl)]
- inhibition of the hemolytic activity of KmTx 2 by co-incubation [8]: no inhibition

Molecule: NC(=O)CC[C@@H]1NC(=O)[C@H](Cc2ccccc2)NC(=O)[C@H](Cc2ccc(O)cc2)NC(=O)[C@@H](N)CSSC[C@@H](C(=O)N2CCC[C@H]2C(=O)N[C@@H](CCCN=C(N)N)C(=O)NCC(N)=O)NC(=O)[C@H](CC(N)=O)NC1=O [vasopressin, reference compound]
- cytosolic Ca^2+ levels [9]: spike in cytosolic Ca^2+ levels followed by rapid decline to level above baseline

Molecule: L-α-phosphatidylcholine (brain, porcine) [natural brain phosphotidylcholine]
- inhibition of the hemolytic activity of KmTx 2 by co-incubation [8]: no inhibition
